From the supplement of paper PMC10307832

These cell lines were tested with CC1(C)CNc2cc(NC(=O)c3cccnc3NCc3ccncc3)ccc21 [Motesanib] + Cc1cc(Nc2cc(N3CCN(C)CC3)nc(Sc3ccc(NC(=O)C4CC4)cc3)n2)n[nH]1 [Tozasertib] (partner 0.1 µM) (assay: relative viability (nuclei count vs DMSO), 5 days (fraction); higher = more cells survive). Conditions: first compound 0.01 µM.
Outline: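 Lung cancer cell lines were pin-tool dosed in 1536-well plates on the day after seeding, with either a lone drug or a fixed anchor-drug dose plus five library-drug doses (not always all listed) in √10 steps. Nuclei were counted on 4× images after 5 days. Relative viability is the ratio of treated-well to vehicle-well nuclei counts, with each value a median of duplicate plates.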

Cell Line | relative viability
NCI-H2342 | 0.493
NCI-H1623 | 0.414
NCI-H727 | 0.603
NCI-H1650 | 0.467
NCI-H1993 | 0.603
SW 1573 | 0.144
NCI-H838 | 0.296
LCLC-103H | 0.489
NCI-H520 | 0.37
NCI-H2126 | 0.883
EMC-BAC-2 | 0.286
NCI-H2085 | 0.852
HCC-366 | 0.124
NCI-H1666 | 0.665
NCI-H596 | 0.917
LK-2 | 0.177
NCI-H2087 | 0.208

Cell Line | relative viability
NCI-H1648 | 0.307
SK-MES-1 | 0.822
H3255 | 0.549
COR-L23 | 0.238
COR-L 105 | 0.341
LOU-NH91 | 0.681
ChaGo-K-1 | 0.236
NCI-H2170 | 0.64
HOP-62 | 0.369
HCC-44 | 0.944
NCI-H522 | 0.629
SW 900 | 0.599
NCI-H2009 | 0.731
NCI-H661 | 0.372
SK-LU-1 | 0.325
NCI-H2228 | 0.355
NCI-H2023 | 0.379

Same assay, conditions: first compound 0.03162 µM

Cell Line | relative viability
NCI-H2342 | 0.496
NCI-H1623 | 0.426
NCI-H727 | 0.574
NCI-H1650 | 0.381
NCI-H1993 | 0.614
SW 1573 | 0.145
NCI-H838 | 0.244
LCLC-103H | 0.341
NCI-H520 | 0.371
NCI-H2126 | 0.922
EMC-BAC-2 | 0.238
NCI-H2085 | 0.749
HCC-366 | 0.115
NCI-H1666 | 0.599
NCI-H596 | 1.27
LK-2 | 0.163
NCI-H2087 | 0.204
NCI-H1648 | 0.367

Cell Line | relative viability
SK-MES-1 | 0.91
H3255 | 0.671
COR-L23 | 0.141
COR-L 105 | 0.33
LOU-NH91 | 0.621
ChaGo-K-1 | 0.237
NCI-H2170 | 0.679
NCI-H2405 | 0.602
HOP-62 | 0.306
HCC-44 | 0.721
NCI-H522 | 0.546
SW 900 | 0.524
NCI-H2009 | 0.705
NCI-H661 | 0.357
SK-LU-1 | 0.298
NCI-H2228 | 0.184
NCI-H2023 | 0.309

Same assay, conditions: first compound 0.1 µM

Cell Line | relative viability
NCI-H2342 | 0.438
NCI-H1623 | 0.457
NCI-H727 | 0.638
NCI-H1650 | 0.438
NCI-H1993 | 0.552
SW 1573 | 0.187
NCI-H838 | 0.255
LCLC-103H | 0.47
NCI-H520 | 0.453
NCI-H2126 | 0.915
EMC-BAC-2 | 0.351
NCI-H2085 | 0.886
HCC-366 | 0.126
NCI-H1666 | 0.634
NCI-H596 | 1.04
NCI-H2087 | 0.261
NCI-H1648 | 0.281

Cell Line | relative viability
SK-MES-1 | 0.958
H3255 | 0.742
COR-L23 | 0.456
COR-L 105 | 0.327
LOU-NH91 | 0.648
ChaGo-K-1 | 0.219
NCI-H2170 | 0.709
NCI-H2405 | 0.814
HOP-62 | 0.412
HCC-44 | 0.941
NCI-H522 | 0.611
SW 900 | 0.66
NCI-H2009 | 0.747
NCI-H661 | 0.367
SK-LU-1 | 0.352
NCI-H2228 | 0.289
NCI-H2023 | 0.346

Same assay, conditions: first compound 0.3162 µM

Cell Line | relative viability
NCI-H2342 | 0.562
NCI-H1623 | 0.425
NCI-H727 | 0.645
NCI-H1650 | 0.491
NCI-H1993 | 0.501
SW 1573 | 0.222
NCI-H838 | 0.236
LCLC-103H | 0.442
NCI-H520 | 0.45
NCI-H2126 | 0.855
EMC-BAC-2 | 0.309
NCI-H2085 | 0.818
HCC-366 | 0.139
NCI-H1666 | 0.6
NCI-H596 | 0.843
LK-2 | 0.163
NCI-H2087 | 0.208
NCI-H1648 | 0.528

Cell Line | relative viability
SK-MES-1 | 0.935
H3255 | 0.513
COR-L23 | 0.193
COR-L 105 | 0.381
LOU-NH91 | 0.658
ChaGo-K-1 | 0.252
NCI-H2170 | 0.832
NCI-H2405 | 0.769
HOP-62 | 0.388
HCC-44 | 0.998
NCI-H522 | 0.566
SW 900 | 0.51
NCI-H2009 | 0.691
NCI-H661 | 0.361
SK-LU-1 | 0.327
NCI-H2228 | 0.272
NCI-H2023 | 0.325

Same assay, conditions: first compound 1 µM

Cell Line | relative viability
NCI-H2342 | 0.583
NCI-H1623 | 0.475
NCI-H727 | 0.577
NCI-H1650 | 0.439
NCI-H1993 | 0.605
SW 1573 | 0.177
NCI-H838 | 0.249
LCLC-103H | 0.551
NCI-H520 | 0.447
NCI-H2126 | 0.867
EMC-BAC-2 | 0.281
NCI-H2085 | 0.797
HCC-366 | 0.0819
NCI-H1666 | 0.617
NCI-H596 | 1.01
LK-2 | 0.181
NCI-H2087 | 0.258
NCI-H1648 | 0.345
SK-MES-1 | 0.922
